Data: patent publication US5354549A, “Iodinated esters” (Nycomed Imaging AS, priority 1987, dated 1994)
Read-outs that look alike come from different tables or passages of the source.

What was measured:
[1] = In vitro biodegradation, control in phosphate buffered saline (PBS); format: in vitro ADME; details: for degraded at 72 h: pH 7.4, 72 hours
Protocol: (§1) The powdered product of Example 1 is suspended in Seronorm (5 mg/ml) (Seronorm is a trade mark of Nycomed AS) at pH 7.4 and agitated at 37° C. As a control the experiment is also performed in phosphate buffered saline (PBS) at pH 7.4. At different time points samples are taken from the supernatant after centrifugation of the vial (4,000 rpm, 10 minutes). The release of Isopaque (5-(N-acetylamino)-3-(N-acetyl-N-methylamino)-2,4,6-triiodobenzenecarboxylic acid) is analysed by HPLC. More than 50% of the substance is hydrolysed during 6 hours and after 24 hours 90% is hydrolysed.
(§2) The powdered product of Example 3 is suspended in Seronorm (0.5 mg/ml) at pH 7.4 and agitated at 37° C. As a control the experiment is also performed in phosphate buffered saline (PBS) at pit 7.4. At different time points samples are taken from the supernatant after centrifugation of the vial (4,000 rpm, 10 minutes). The release of Isopaque (5-(N-acetylamino)-3-(N-acetyl-N-methylamino)-2,4,6-triiodobenzenecarboxylic acid) is analysed by HPLC. 4.1% of the substance is hydrolysed during 24 hours. In PBS 0.12% is hydrolysed during 72 hours.
as §2, with “Example 10” for “Example 3”, “at pH” for “at pit”, “HPLC. […]” for “HPLC. 4.1% of the substance is hydrolysed during 24 hours.”, “PBS 58%” for “PBS 0.12%”
as §2, with “Example 4” for “Example 3”, “Seronorm at” for “Seronorm”, “mg/ml)” for “mg/ml) at”, “at pH” for “at pit”, “HPLC. […] In PBS 34% was” for “HPLC. 4.1% of the substance is”, “hours.” for “hours. In PBS 0.12% is hydrolysed during 72 hours.”

[2] = In vitro biodegradation in Seronorm (release of Isopaque analysed by HPLC); format: in vitro ADME; details: pH 7.4, 37° C.
Protocol: as §1, §2
as §2, with “Example 10” for “Example 3”, “at pH” for “at pit”, “HPLC. […]” for “HPLC. 4.1% of the substance is hydrolysed during 24 hours.”, “PBS 58%” for “PBS 0.12%”
as §2, with “Example 4” for “Example 3”, “Seronorm at” for “Seronorm”, “mg/ml)” for “mg/ml) at”, “at pH” for “at pit”, “HPLC. […] In PBS 34% was” for “HPLC. 4.1% of the substance is”, “hours.” for “hours. In PBS 0.12% is hydrolysed during 72 hours.”

[3] = read-out: substance hydrolysed in PBS

**Q.** Which results are given for `CC(=O)Nc1c(I)c(C(=O)OC(C)OC(C)=O)c(I)c(N(C)C(C)=O)c1I` (stereo not shown) [Example 4, 1-(Acetyloxy)ethyl 5-(N-acetylamino)-3-(N-acetyl-N-methylamino)-2,4,6-triiodobenzenecarboxylate]?
**A.** degraded at 24 h ([1]; pH 7.4, 24 hours, read-out: substance hydrolysed in PBS): 34%; metabolised at 2 h ([2]; 0.5 mg/ml, 2 hour incubation, read-out: substance hydrolysed): 29%; hydrolysis ([2]; 0.5 mg/ml, after 24 hours): hydrolysis is complete

**Q.** For `CC(=O)Nc1c(I)c(C(=O)OC(C)OC(=O)C(C)(C)C)c(I)c(N(C)C(C)=O)c1I` (stereo not shown) [Example 3, 1-(Pivaloylyloxy)ethyl 5-(N-acetylamino)-3-(N-acetyl-N-methyl-amino)-2,4,6-triiodobenzenecarboxylate], which degraded at 72 h [1, 3] is on record?
**A.** Its degraded at 72 h is 0.12%.

**Q.** And the metabolised at 24 h ([2]; 0.5 mg/ml, read-out: substance hydrolysed)?
**A.** The metabolised at 24 h was 4.1%.

**Q.** With `CC(=O)Nc1c(I)c(C(=O)OCOC(=O)C(C)(C)C)c(I)c(N(C)C(C)=O)c1I` [Example 1, Pivaloyloxymethyl 5-(N-acetylamino)-3-(N-acetyl-N-methylamino)-2,4,6-triiodobenzenecarboxylate] as the molecule, how does the “hydrolysis in PBS” value ([1]; pH 7.4, control) read?
**A.** Its value is “no hydrolysis could be detected”.

**Q.** And the metabolised at 6 h ([2]; 5 mg/ml, 6 hours, read-out: substance hydrolysed)?
**A.** Its metabolised at 6 h is over 50%.

**Q.** What about the metabolised at 24 h ([2]; 5 mg/ml, read-out: substance hydrolysed) of the same molecule?
**A.** Its metabolised at 24 h is 90%.

**Q.** What does the source list for `CC(=O)Nc1c(I)c(C(=O)OCOC(C)=O)c(I)c(N(C)C(C)=O)c1I` [Example 10, Acetyloxvmethyl 5-(N-acetylamino)-3-(N-acetyl-N-methylamino)-2,4,6-triiodobenzenecarboxylate]?
**A.** degraded at 72 h [1, 3]: 58%; hydrolysis of substrate ([2]; 0.5 mg/ml, after 2 hours): completely hydrolysed
